Laboratory results taken from publication PMC10046037, “GABRG2 Variants Associated with Febrile Seizures” (Biomolecules, 2023).

Experiments:
[1] = target: T1, α1β3γ2 GABAA receptor, γ2R215H variant (Homo sapiens, UniProt P14867+P18507+P28472, R215H); assay: Automated patch clamp of GABA-elicited currents (SyncroPatch 384PE), γ2R215H; type: cell-based; settings: mean
T1 construct: expressed in transfected cells; host or cells: HEK293T
T1 sequence (P14867 28-456): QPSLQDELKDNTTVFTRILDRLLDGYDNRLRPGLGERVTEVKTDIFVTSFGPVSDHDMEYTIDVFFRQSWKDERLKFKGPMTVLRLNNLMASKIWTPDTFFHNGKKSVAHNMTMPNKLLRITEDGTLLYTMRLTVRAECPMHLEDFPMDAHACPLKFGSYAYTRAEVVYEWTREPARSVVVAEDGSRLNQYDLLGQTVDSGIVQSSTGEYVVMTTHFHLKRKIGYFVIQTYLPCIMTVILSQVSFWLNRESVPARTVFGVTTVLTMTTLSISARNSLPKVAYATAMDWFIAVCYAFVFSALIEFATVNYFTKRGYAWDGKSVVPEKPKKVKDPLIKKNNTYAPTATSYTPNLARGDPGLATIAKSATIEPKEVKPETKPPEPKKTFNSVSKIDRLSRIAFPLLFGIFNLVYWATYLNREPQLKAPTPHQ
T1 sequence (P28472 26-473 isoform P28472-2): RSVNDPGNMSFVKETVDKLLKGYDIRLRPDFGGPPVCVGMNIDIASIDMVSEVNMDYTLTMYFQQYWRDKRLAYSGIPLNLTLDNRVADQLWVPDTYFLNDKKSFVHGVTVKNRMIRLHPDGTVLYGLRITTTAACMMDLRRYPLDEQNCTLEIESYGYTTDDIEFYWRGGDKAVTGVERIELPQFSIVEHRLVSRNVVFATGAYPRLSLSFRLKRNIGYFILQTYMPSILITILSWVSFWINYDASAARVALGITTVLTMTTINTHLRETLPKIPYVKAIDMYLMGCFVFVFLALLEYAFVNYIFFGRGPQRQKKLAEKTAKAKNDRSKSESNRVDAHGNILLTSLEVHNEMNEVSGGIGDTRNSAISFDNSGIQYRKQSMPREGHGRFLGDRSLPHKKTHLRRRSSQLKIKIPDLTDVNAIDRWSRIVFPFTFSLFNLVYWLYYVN
T1 sequence (P18507 40-475 R215H): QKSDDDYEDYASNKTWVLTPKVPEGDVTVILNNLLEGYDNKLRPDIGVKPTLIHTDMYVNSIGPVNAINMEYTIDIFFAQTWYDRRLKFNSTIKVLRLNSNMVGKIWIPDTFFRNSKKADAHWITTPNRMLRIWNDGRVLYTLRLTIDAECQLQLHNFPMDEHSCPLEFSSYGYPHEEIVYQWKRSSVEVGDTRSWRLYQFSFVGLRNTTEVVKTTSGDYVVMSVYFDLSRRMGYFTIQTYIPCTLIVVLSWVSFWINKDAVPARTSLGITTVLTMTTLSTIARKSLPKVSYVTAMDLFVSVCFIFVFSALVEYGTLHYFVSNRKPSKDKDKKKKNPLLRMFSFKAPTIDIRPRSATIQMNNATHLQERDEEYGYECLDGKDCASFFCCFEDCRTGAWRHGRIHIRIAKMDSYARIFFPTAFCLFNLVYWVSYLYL
Protocol: (§1) The coding sequences of human α1 (GABRA1, NM_000806), β3 (GABRB3, NM_021912), and γ2 (GABRG2, NM_198904.2) GABAAR subunits were subcloned into the pcDNA3.1 expression vectors (Invitrogen, Waltham, MA, USA).
(§2) HEK293T cells (ATCC, CRL-11268) were cultured at 37 °C in a humidified 5% CO2 incubator and maintained in Dulbecco’s modified Eagle’s medium (Invitrogen) supplemented with 10% fetal bovine serum (Life Technologies, Carlsbad, CA, USA), and 100 IU/mL of penicillin/streptomycin (Life Technologies). For the expression experiments, 4 × 10^5 cells were transfected using polyethylenimine (PEI) reagent (40 kD, Polysciences, Warrington, PA, USA) at a DNA: to transfection reagent ratio of 1:2.5 and harvested 36 h after transfection. To express WT and variant α1β3γ2 receptors, a total of 3 µg of α1, β3, and γ2 (WT or mutant) subunit cDNAs were transfected at a ratio of 1:1:1 into 60 mm culture dishes. For the mock-transfected condition, an empty pcDNA3.1 vector was added for a final cDNA transfection amount of 3 μg. For the electrophysiology experiments, 2.5 × 10^5 cells were plated in 100 mm culture dishes and transfected after 24 h with 3 μg of cDNA of each α1, β3, γ2 (wild-type or mutant) subunit, using X-tremeGENE HP DNA transfection Reagent (Roche Diagnostics, Basel, Switzerland), following the manufacturer’s protocol. Recordings were obtained forty-eight hours after transfection.
Whole-cell patch clamp recordings were conducted according to the manufacturer’s standard procedure for the SyncroPatch 384 [31]. […] Using PatchControl 384, electrophysiological parameters, such as seal resistance, capacitance, and series resistance, were determined for each well after the application of a test pulse, and subsequently monitored over time. […] The currents were normalized to the maximal response of each well, and the concentration–response curves were calculated from single-point additions. The EC50 values for each variant or wild-type receptor were calculated across multiple wells for each experimental condition.

[2] = target: T2, α1β3γ2 GABAA receptor, wild-type (WT) γ2 subunit (Homo sapiens, UniProt P14867+P28472); assay: Automated patch clamp of GABA-elicited currents (SyncroPatch 384PE), WT receptor; type: cell-based; settings: mean
T2 construct: expressed in transfected cells; host or cells: HEK293T
Protocol: as §1, §2
Whole-cell patch clamp recordings were conducted according to the manufacturer’s standard procedure for the SyncroPatch 384 [31]. Whole-cell voltage-clamp recordings were performed at room temperature on HEK293T cells 48 h after transfection with GABAAR subunits, using the SyncroPatch 384PE (Nanion Technologies, Munich, Germany). Cells, at a concentration of 400,000 cells/mL, were harvested in suspension in external solution containing 140 mM of NaCl, 2 mM of CaCl2, 4 mM of KCl, 1 mM of MgCl2, 5 mM of glucose, and 10 mM of HEPES (pH 7.4 with NaOH, 298 mOsm). The cells were loaded in a multi-hole (4 holes per well) 384-well Nanion patch clamp (NPC) chip with a thick borosilicate glass bottom and an average resistance pore size of […]. Built-in electrophysiological protocols were used, and the data were digitized using PatchControl 384 (Nanion Technologies) application. Using PatchControl 384, electrophysiological parameters, such as seal resistance, capacitance, and series resistance, were determined for each well after the application of a test pulse, and subsequently monitored over time. […] The currents were normalized to the maximal response of each well, and the concentration–response curves were calculated from single-point additions. The EC50 values for each variant or wild-type receptor were calculated across multiple wells for each experimental condition.

[3] = 10–90% rise time, 1 mM GABA for 5 ms, HEK293T

T2 sequence (P18507 40-475 partner, one chain of several): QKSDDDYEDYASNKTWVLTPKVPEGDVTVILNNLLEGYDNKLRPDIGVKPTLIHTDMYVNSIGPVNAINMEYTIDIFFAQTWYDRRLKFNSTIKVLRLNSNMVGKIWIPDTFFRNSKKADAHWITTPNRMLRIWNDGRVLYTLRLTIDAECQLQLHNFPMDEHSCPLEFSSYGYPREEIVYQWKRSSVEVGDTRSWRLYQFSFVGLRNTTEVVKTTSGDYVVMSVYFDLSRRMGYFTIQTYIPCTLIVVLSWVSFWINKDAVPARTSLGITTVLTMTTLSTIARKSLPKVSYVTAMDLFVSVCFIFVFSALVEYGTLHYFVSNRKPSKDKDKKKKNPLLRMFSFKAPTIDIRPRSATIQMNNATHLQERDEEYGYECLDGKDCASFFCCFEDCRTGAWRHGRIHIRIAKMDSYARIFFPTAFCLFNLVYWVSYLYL

NCCCC(=O)O [GABA, γ-aminobutyric acid]
IMAX (maximal GABA-evoked peak current) ([1]; 1 mM GABA for 5 ms, HEK293T): 0.61 nA | IMAX variant/IMAX WT ([1]; 1 mM GABA): 30.44% | Rise Time [1, 3]: 31.68 ms | Deactivation ([2]; 1 mM GABA for 5 ms, HEK293T, -80 mV): 199.9 ms | IMAX (maximal GABA-evoked peak current) ([2]; 1 mM GABA for 5 ms, HEK293T): 2.00 nA | IMAX variant/IMAX WT ([2]; 1 mM GABA): 100.00% | Rise Time [2, 3]: 13.67 ms
